# Data from paper PMC7470163, “Effects of ticagrelor on the pharmacokinetics of rivaroxaban in rats” (Pharmaceutical Biology, 2020).
# Read-outs that look alike come from different tables or passages of the source.
# What was measured:
# [1] = set-up: method as in Butler and Teng [2011]; details: oral administration of ticagrelor, healthy volunteers; ref Butler and Teng [2011]; cited from earlier work
# [2] = set-up: method as in Becker et al. [2011]; details: PLATO study; ref Becker et al. [2011]; cited from earlier work
# [3] = set-up: method as in Teng and Butler [2013]; details: concomitant use of ticagrelor; ref Teng and Butler [2013]; cited from earlier work
# [4] = tested on: rivaroxaban metabolism in RLMs; assay: In vitro interaction study: inhibition of rivaroxaban metabolism by ticagrelor in RLMs; assay type: in vitro ADME, Sprague-Dawley rat; details: read-out: IC50 (ticagrelor decreased rivaroxaban metabolic clearance)
# Procedure: The pooled rat liver microsomes (RLMs) were obtained from 8 rats, which were weighed and homogenized with cold […] phosphate-buffered saline (PBS) containing 0.25 mM sucrose. After centrifuging at 11000 rpm for 15 min, the supernatants were separated and transferred into new tubes for another 15 min centrifugation at 11000 rpm. Then ultracentrifugation was performed at 10000 rpm at 4 °C for 1 h, and the microsomal pellets were resuspended with cold 0.01 mM PBS and stored at −80 °C. The protein concentration of RLMs was determined using the Bradford Protein Assay Kit (Thermo Scientific, Waltham, MA, USA).
# Ticagrelor was applied as the inhibitor to determine the half-maximal inhibitory concentration (IC50). The incubation mixture in a total volume of 200 μL contained 0.5 mg/mL of RLMs, 100 mM potassium phosphate buffer (pH 7.4), rivaroxaban (20 μM), ticagrelor (1, 2.5, 5, 10, 25, 50 and 100 μM) and 1 mM NADPH. After preincubation in a shaking water bath at 37 °C for 5 min, NADPH was added to initiate the reaction in a final volume of 200 μL. […]
# The GraphPad (version 8.0; GraphPad Software Inc., San Diego, CA, USA) was applied to calculate IC50 and plot plasma concentration-time curves. The pharmacokinetic parameters using non-compartmental analysis were calculated by DAS (version 3.2.8; Wenzhou Medical University, China). […]
# [5] = tested on: CYP3A4 (4-hydroxylation of midazolam); set-up: method as in Zhou et al. [2011]; details: read-out: IC50 (inhibition of 4-hydroxylation of midazolam); in vitro; ref Zhou et al. [2011]; cited from earlier work
# [6] = In vivo pharmacokinetic experiment: oral rivaroxaban in rats with or without ticagrelor pre-treatment (plasma, UPLC-MS/MS); set-up: species or system Sprague-Dawley rats; details: for AUC(0-t) / AUC(0-inf) / Cmax / half-life / MRT inf / MRT last: po; for MRT inf: read-out: MRT (0–∞); for MRT last: read-out: MRT(0–t); for CLint scaled: read-out: CL (text: intrinsic clearance) (converted)
# Procedure: Chromatographic separation was performed using the Acquity UPLC system (Waters Corp., Milford, MA, USA) and ACQUITY UPLC HSS T3 column (2.1 × 100 mm, 1.8 μm) at 40 °C. The mobile phase comprising acetonitrile (A) and 0.1% formic acid water (B) was set with a flow rate of 0.40 mL/min. The gradient programme was applied as follows: 0–0.5 min, 30% A; 0.5–1 min, 30–95% A; 1–2 min, 95% A; […], 95% A; 2.5–2.6 min, 95–30% A; 2.6–3 min, 30% A. The total time required for analysis was 3 min. The sample manager underwent a strong wash (methanol water, 50/50, V/V) and a weak wash (methanol water, 10/90, V/V) after each injection.
# XEVO TQD triple quadrupole mass spectrometer was equipped with electrospray ionization (ESI), and multiple-reaction monitoring (MRM) mode was selected for quantization. The precursor ion and product ion were m/z 435.93→144.81 for rivaroxaban and m/z 285.1→193.1 for diazepam (internal standard, IS), respectively. The optimal MS parameters were defined as follows: the cone voltages were set at 35 V and 50 V for rivaroxaban and IS; the collision energies were set at 30 V and 25 V for rivaroxaban and IS. Masslynx 4.1 software (Waters Corp., Milford, MA, USA) was used for data acquisition, and the UPLC-MS/MS chromatogram of blank plasma that was spiked with rivaroxaban and IS was shown below (Figure 2).
# Ten specific pathogen-free (SPF) grade Sprague–Dawley rats (male, 220 ± 20 g) were provided by Wenzhou Medical University Laboratory Animal Research Centre. All experimental procedures and protocols were reviewed and approved by the Animal Care and Use Committee of Wenzhou Medical University and were in accordance with the Guide for the Care and Use of Laboratory Animals (ID Number: wydw2019-650). Ten rats were randomly divided into two groups: the ticagrelor group (n = 5) and the control group (n = 5). Rats were bred at 25 °C with 60 ± 5% humidity and a 12 h dark/light cycle. Enough tap water and normal chow were provided ad libitum. The rats were placed under the above conditions for one week before initiating the experiment.
# The ticagrelor group was pre-treated with ticagrelor by oral gavage at a dose of 10 mg/kg/day (dissolved in CMC-Na solution) for two weeks before the administration of rivaroxaban. The control group also received equal amounts of the vehicle (CMC-Na solution). Rivaroxaban was dissolved in dimethyl sulfoxide (DMSO) and was then diluted with polyethylene glycol 200 so that DMSO accounted for 5% of the total volume. Each group of rats was given an oral gavage of rivaroxaban at a dose of 10 mg/kg, and then blood was collected via the rat’s tail vein for analysis at 0.083, 0.25, 0.5, 1, 2, 3, 4, 6, 8, 12 and 24 h. Samples were collected into 1.5 mL centrifuge tubes and were immediately centrifuged at 4000 rpm for 10 min.
# Every 100 µL of rat plasma was added with 200 µL of acetonitrile in 0.5 μg/mL of IS, followed by vortex mixing for 1 min. After centrifugation at 13000 rpm for 15 min, 5 µL of supernatant was prepared for UPLC-MS/MS system to analyse.
# The GraphPad (version 8.0; GraphPad Software Inc., San Diego, CA, USA) was applied to calculate IC50 and plot plasma concentration-time curves. The pharmacokinetic parameters using non-compartmental analysis were calculated by DAS (version 3.2.8; Wenzhou Medical University, China). Statistical comparisons within groups were conducted by SPSS (version 25.0; SPSS Inc., Chicago, IL, USA), using Student’s t-test. Values of p < 0.05 were considered statistically significant.
# [7] = Enzyme kinetics of rivaroxaban metabolism in rat liver microsomes; assay type: in vitro ADME, Sprague-Dawley rat; details: Sprague-Dawley, rat, rat liver microsomes, pH 7.4, RLMs 0.5 mg/mL, 37 °C, 1 mM NADPH, R squared 0.979
# Procedure: (§1) The pooled rat liver microsomes (RLMs) were obtained from 8 rats, which were weighed and homogenized with cold […] phosphate-buffered saline (PBS) containing 0.25 mM sucrose. After centrifuging at 11000 rpm for 15 min, the supernatants were separated and transferred into new tubes for another 15 min centrifugation at 11000 rpm. Then ultracentrifugation was performed at 10000 rpm at 4 °C for 1 h, and the microsomal pellets were resuspended with cold 0.01 mM PBS and stored at −80 °C. The protein concentration of RLMs was determined using the Bradford Protein Assay Kit (Thermo Scientific, Waltham, MA, USA). […] The incubation time was 30 min. Incubations were initiated following a 5 min pre-incubation in a shaking water bath at 37 °C. 1 mM NADPH was added to initiate the reaction in a final volume of 200 μL. The reaction was stopped immediately by cooling to −80 °C. After that, 20 μL IS working solution and 200 μL acetonitrile were added. Centrifugation was performed at 13000 rpm for 5 min after vortexing for 1 min, and the supernatant was collected. Each incubation sample study was performed in separate EP tubes, performed in triplicate and analysed by UPLC-MS/MS. We selected 2 μL of RLMs with a concentration of 0.5 mg/mL in PBS for 30 minutes as the condition for enzyme kinetic studies. […]
# [8] = tested on: rat liver microsomes (RLMs); assay: as above; assay type: in vitro ADME, Sprague-Dawley rat; details: RLMs 0.5 mg/mL, 30 min, 37 °C, 1 mM NADPH, R squared 0.979
# Procedure: as §1
# [9] = set-up: method as in Abrams and Emerson [2009]; details: phase I trials; ref Abrams and Emerson [2009]; cited from earlier work
# CYP3A4 = tested on: CYP3A4; set-up: method as in Kvasnicka et al. [2017]; details: ref Kvasnicka et al. [2017]; cited from earlier work
# CYP2J2 = tested on: CYP2J2; set-up: method as in Kvasnicka et al. [2017]; details: ref Kvasnicka et al. [2017]; cited from earlier work
# [10] = set-up: method as in Mueck et al. [2013]; details: co-administration of ketoconazole; ref Mueck et al. [2013]; cited from earlier work
# [11] = set-up: method as in Eriksson et al. [2009]; Altena et al. [2014]; details: with CYP3A4 inducer rifampicin; ref Eriksson et al. [2009]; Altena et al. [2014]; cited from earlier work
# [12] = set-up: method as in Mega et al. [2012]; details: low-dose rivaroxaban (2.5 mg or 5 mg twice daily) co-administered with DAPT; ref Mega et al. [2012]; cited from earlier work
# [13] = male, Sprague-Dawley, rat, plasma, 10 mg/kg, rivaroxaban 10 mg/kg oral, rats pre-treated with ticagrelor 10 mg/kg/day for 14 days
# [14] = male, Sprague-Dawley, rat, plasma, 10 mg/kg, rivaroxaban 10 mg/kg oral, rats, control group (no ticagrelor)
# [15] = male, Sprague-Dawley, rat, plasma, 10 mg/kg, rivaroxaban 10 mg/kg oral, rats, without ticagrelor pre-treatment
# [16] = male, Sprague-Dawley, rat, plasma, rivaroxaban 10 mg/kg oral, rats, control group (no ticagrelor)
# [17] = rats, oral ticagrelor 10 mg/kg/day for 14 days vs control
# [18] = rivaroxaban 10 mg/kg oral, rats pre-treated with ticagrelor 10 mg/kg/day for 14 days
structure (smiles),measurement,setting,value
C#C[C@]1(O)CC[C@H]2[C@@H]3CCc4cc(O)ccc4[C@H]3CC[C@@]21C [ethinyloestradiol],increase of AUC0–t of ethinyloestradiol,[1],20%
same,increase of Cmax of ethinyloestradiol,[1],31%
same,increase of Cmin of ethinyloestradiol,[1],20%
COC(=O)[C@H](c1ccccc1Cl)N1CCc2sccc2C1 [clopidogrel],non-CABG major bleeding,[2],3.8%
same,non-procedure-related major bleeding,[2],2.3%
C[C@H]1O[C@@H](O[C@H]2[C@@H](O)C[C@H](O[C@H]3[C@@H](O)C[C@H](O[C@H]4CC[C@@]5(C)[C@H](CC[C@@H]6[C@@H]5C[C@@H](O)[C@]5(C)[C@@H](C7=CC(=O)OC7)CC[C@]65O)C4)O[C@@H]3C)O[C@@H]2C)C[C@H](O)[C@@H]1O [digoxin],increase of digoxin AUC,[3],28%
same,increase of digoxin Cmax,[3],75%
"CCCSc1nc(N[C@@H]2C[C@H]2c2ccc(F)c(F)c2)c2nnn([C@@H]3C[C@H](OCCO)[C@@H](O)[C@H]3O)c2n1 [ticagrelor, Ticagrelor]",IC50,[4],14 µM
same,non-CABG major bleeding,[2],4.5%
same,non-procedure-related major bleeding,[2],3.1%
O=C(NC[C@H]1CN(c2ccc(N3CCOCC3=O)cc2)C(=O)O1)c1ccc(Cl)s1 [Rivaroxaban],AUC(0-t),"[6]; male, Sprague-Dawley, rat, plasma, 10 mg/kg, rivaroxaban 10 mg/kg oral single dose, rats pre-treated with ticagrelor 10 mg/kg/day oral for 14 days, n=5, mean ± SD",3480 ± 754 ng·h/mL
same,AUC(0-t),"[6]; male, Sprague-Dawley, rat, plasma, 10 mg/kg, rivaroxaban 10 mg/kg oral single dose, rats, control group (vehicle, no ticagrelor), n=5, mean ± SD",1060 ± 291 ng·h/mL
same,AUC(0-inf),[6]; [13],3580 ± 736 ng·h/mL
same,Cmax,[6]; [13],691 ± 238 ng/mL
same,half-life,[6]; [13],5.12 ± 1.65 h
same,MRT inf,[6]; [13],5.97 ± 1.11 h
same,MRT last,[6]; [13],5.18 ± 0.91 h
same,AUC(0-inf),[6]; [14],1070 ± 299 ng·h/mL
same,Cmax,[6]; [14],221 ± 53.3 ng/mL
same,half-life,[6]; [14],2.64 ± 0.72 h
same,MRT inf,[6]; [14],4.41 ± 0.79 h
same,MRT last,[6]; [14],4.32 ± 0.66 h
same,AUC(0-t),"[6]; male, Sprague-Dawley, rat, plasma, 10 mg/kg, rivaroxaban 10 mg/kg oral, rats with ticagrelor pre-treatment 10 mg/kg/day for 14 days",3480 ± 754 ng·h/mL
same,AUC(0-inf),[6]; [15],1070 ± 299 ng·h/mL
same,AUC(0-t),[6]; [15],1060 ± 291 ng·h/mL
same,AUC(0-inf),"[6]; male, Sprague-Dawley, rat, plasma, rivaroxaban 10 mg/kg oral, rats with ticagrelor pre-treatment 10 mg/kg/day for 14 days",3580 ± 736 ng·h/mL
same,CLint scaled,"[6]; male, Sprague-Dawley, rat, plasma, rivaroxaban 10 mg/kg oral, rats pre-treated with ticagrelor 10 mg/kg/day for 14 days",48.2 mL/min/kg
same,Tmax,[6]; [16],2 ± 0.71 h
same,CLint scaled,[6]; [16],166 mL/min/kg
same,increase of AUC value of rivaroxaban,[6]; [17],3.3 fold
same,increase of Cmax value of rivaroxaban,[6]; [17],3.1 fold
same,T max,[6]; [18],2.00 ± 0.71 h
same,Vz,[6]; [18],21.89 ± 9.00 L/kg
same,Vz,"[6]; rivaroxaban 10 mg/kg oral, rats, control group (no ticagrelor)",36.23 ± 5.48 L/kg
same,Km at 30 min,[7],19.1 µM
same,Vmax,[8],3.37 pmol/min/mg
same,time to peak plasma concentration (Tmax),[9],1.5 to 4 h
same,share of total rivaroxaban elimination involving CYP3A4,CYP3A4,about 18%
same,share of total rivaroxaban elimination involving CYP2J2,CYP2J2,about 14%
same,increase in Cmax value of rivaroxaban,[10],1.7 fold
same,increase in the mean AUC value of rivaroxaban,[10],2.6 fold
same,reduction in the systemic exposure of rivaroxaban,[11],50%
same,risk of intracranial hemorrhage,[12],0.6%
same,risk of major bleeding,[12],2.1%
